According to publication PMC9865890, “N-Derivatives of (Z)-Methyl 3-(4-Oxo-2-thioxothiazolidin-5-ylidene)methyl)-1H-indole-2-carboxylates as Antimicrobial Agents—In Silico and In Vitro Evaluation” (Pharmaceuticals, 2023):
≈ marks a conversion by molar mass, not a printed value. Where two headings read alike, the source gives them in different places.

How the values were obtained:
[1] = tested on: Penicillium verrucosum var. cyclopium (food isolate); experiment: Antifungal bioassay (MIC/MFC); format: cell-based
Experimental: For the antifungal bioassays, six fungi were used: Aspergillus niger (ATCC 6275), Aspergillus fumigatus (ATCC 1022), Aspergillus versicolor (ATCC 11730), Penicillium funiculosum (ATCC 36839), Trichoderma viride (IAM 5061), and Penicillium verrucosum var. cyclopium (food isolate). The organisms were obtained from the Mycological Laboratory, Department of Plant Physiology, Institute for Biological Research “Siniša Stankovic”, Belgrade, Serbia. All experiments were performed in duplicate.

[2] = tested on: Bacillus cereus (clinical isolate); experiment: Antibacterial microdilution (MIC/MBC); format: cell-based; conditions: B.c. (B. cereus)
Experimental: (§1) The synthesized compounds (Table 1) were evaluated for their antibacterial activity against a panel of eight species using a microdilution method with ampicillin and streptomycin as reference drugs. […] The order of activity can be presented as: 8 > 11 > 2 > 1 > 12 > 3 > 17 > 7 > 5 > 13 > 14 > 16 > 9 > 4 = 6 > 15 > 10. […] Cloacae. […] The most sensitive bacteria appeared to be En. cloacae, while E. coli was the most resistant one, followed by M. flavus.
(§2) The following Gram-negative bacteria: Escherichia coli (ATCC 35210), Enterobacter cloacae (clinical isolate), Salmonella typhimurium (ATCC 13311), as well as Gram-positive bacteria: Listeria monocytogenes (NCTC 7973), Bacillus cereus (clinical isolate), and Staphylococcus aureus (ATCC 6538) were used. The organisms were obtained from the Mycological Laboratory, Department of Plant Physiology, Institute for Biological Research “Siniša Stankovic”, Belgrade, Serbia. The minimum inhibitory (MIC) and minimum bactericidal (MBC) concentrations were determined by the modified microdilution method, as previously reported.

[3] = tested on: Enterobacter cloacae (clinical isolate); experiment: Antibacterial microdilution (MIC/MBC); format: cell-based; conditions: Enterobacter cloacae, En.cl (En. cloacae); for MIC: read-out: MIC
Experimental: as §1, §2

[4] = tested on: M. flavus; experiment: Antibacterial microdilution (MIC/MBC); format: cell-based; conditions: Micrococcus flavus; M.f. (M. flavus)
Experimental: as §1, §2

[5] = tested on: P. aeruginosa; experiment: Antibacterial microdilution (MIC/MBC); format: cell-based; conditions: Pseudomonas aeruginosa, P.a. (P. aeruginosa); for MIC: read-out: MIC
Experimental: as §1, §2

[6] = tested on: Listeria monocytogenes (NCTC 7973); experiment: Antibacterial microdilution (MIC/MBC); format: cell-based; conditions: Listeria monocytogenes, NCTC7973, L.m. (L. monocytogenes); for MIC: read-out: MIC
Experimental: as §1, §2

[7] = tested on: Salmonella typhimurium (ATCC 13311); experiment: Antibacterial microdilution (MIC/MBC); format: cell-based; conditions: S.t. (S. typhimurium)
Experimental: as §1, §2

[8] = tested on: Escherichia coli (ATCC 35210); experiment: Antibacterial microdilution (MIC/MBC); format: cell-based; conditions: Escherichia coli, ATCC35210, E. coli; for MIC: read-out: MIC
Experimental: as §1, §2

[9] = tested on: Staphylococcus aureus (ATCC 6538); experiment: Antibacterial microdilution (MIC/MBC); format: cell-based; conditions: S.a. (S. aureus)
Experimental: as §1, §2

[10] = tested on: A. ochraceus; experiment: Antifungal bioassay (MIC/MFC); format: cell-based; conditions: Aspergillus ochraceus, A.o. (A. ochraceus); for MIC: read-out: MIC
Experimental: (§3) For the antifungal bioassays, six fungi were used: […] The organisms were obtained from the Mycological Laboratory, Department of Plant Physiology, Institute for Biological Research “Siniša Stankovic”, Belgrade, Serbia. All experiments were performed in duplicate.

[11] = tested on: Aspergillus versicolor (ATCC 11730); experiment: Antifungal bioassay (MIC/MFC); format: cell-based; conditions: ATCC11730, A.v. (A. versicolor)
Experimental: as §3

[12] = tested on: Aspergillus niger (ATCC 6275); experiment: Antifungal bioassay (MIC/MFC); format: cell-based; conditions: ATCC6275, A.n. (A. niger)
Experimental: as §3

[13] = tested on: Penicillium funiculosum (ATCC 36839); experiment: Antifungal bioassay (MIC/MFC); format: cell-based; conditions: Talaromyces funiculosus, ATCC36839; P.f. (P. funiculosum)
Experimental: as §3

[14] = tested on: Aspergillus fumigatus (ATCC 1022); experiment: Antifungal bioassay (MIC/MFC); format: cell-based; conditions: ATCC1022, A.f. (A. fumigatus)
Experimental: as §3

[15] = tested on: P. ochrochloron; experiment: Antifungal bioassay (MIC/MFC); format: cell-based; conditions: for MIC: P.o. (P. ochrochloron; text: P. ochramensis); for MFC: P.o. (P. ochrochloron)
Experimental: as §3

[16] = tested on: Trichoderma viride (IAM 5061); experiment: Antifungal bioassay (MIC/MFC); format: cell-based; conditions: T.v. (T. viride)
Experimental: as §3

[17] = Salmonella enterica, read-out: MIC
[18] = Staphylococcus aureus, ATCC6538
[19] = Staphylococcus aureus, ATCC6538, read-out: MIC
[20] = Penicillium ochrochloron, read-out: MIC
[21] = Trichoderma viride, IAM5061, read-out: MIC

| SMILES | MFC [1] [µg/mL] | MIC [1] [µg/mL] | MBC ([2]; Bacillus cereus) [µg/mL] | MIC ([2]; Bacillus cereus, read-out: MIC) [µg/mL] | MBC [3] [µg/mL] | MIC [3] [µg/mL] | MBC [4] [µg/mL] | MIC [4] [µg/mL] | MBC [5] [µg/mL] | MIC [5] [µg/mL] | MBC [6] [µg/mL] | MIC [6] [µg/mL] | MIC [7] [µg/mL] | MBC ([7]; Salmonella enterica) [µg/mL] | MIC [7, 17] [µg/mL] | MBC [8] [µg/mL] | MIC [8] [µg/mL] | MIC [9] [µg/mL] | MBC [9, 18] [µg/mL] | MIC [9, 19] [µg/mL] | further results |
| --- | --- | --- | --- | --- | --- | --- | --- | --- | --- | --- | --- | --- | --- | --- | --- | --- | --- | --- | --- | --- | --- |
| COC(=O)c1[nH]c2ccccc2c1/C=C1\SC(=S)N(Cc2ccco2)C1=O [Compound 7, (Z)-methyl 3-((3-(furan-2-ylmethyl)-4-oxo-2-thioxothiazolidin-5-ylidene)methyl)-1H-indole-2-carboxylate] | 30 ± 10 (≈ 75.3 µM) | 15 ± 3 (≈ 37.6 µM) | 60 ± 6 (≈ 151 µM) | 30 ± 10 (≈ 75.3 µM) | 30 ± 10 (≈ 75.3 µM) | 15 ± 9 (≈ 37.6 µM) | 60 ± 6 (≈ 151 µM) | 45 ± 3 (≈ 113 µM) | 60 ± 6 (≈ 151 µM) | 30 ± 10 (≈ 75.3 µM) | 60 ± 6 (≈ 151 µM) | 30 ± 10 (≈ 75.3 µM) | 15 ± 9 (≈ 37.6 µM) | 30 ± 10 (≈ 75.3 µM) | 15 (≈ 37.6 µM) | 60 ± 6 (≈ 151 µM) | 30 ± 10 (≈ 75.3 µM) | 15 ± 9 (≈ 37.6 µM) | 30 ± 10 (≈ 75.3 µM) | 15 (≈ 37.6 µM) | MFC [10]: 15 ± 3 µg/mL (≈ 37.6 µM); MIC [10]: 8 ± 0.6 µg/mL (≈ 20.1 µM); MFC [11]: 15 ± 3 µg/mL (≈ 37.6 µM); MIC [11]: 8 ± 0.6 µg/mL (≈ 20.1 µM); MFC [12]: 15 ± 3 µg/mL (≈ 37.6 µM); MIC [12]: 8 ± 0.6 µg/mL (≈ 20.1 µM); MFC [13]: 30 ± 10 µg/mL (≈ 75.3 µM); MIC [13]: 15 ± 3 µg/mL (≈ 37.6 µM); MFC [14]: 120 ± 40 µg/mL (≈ 301 µM); MIC [14]: 60 ± 6 µg/mL (≈ 151 µM); MIC [15]: 8 ± 0.6 µg/mL (≈ 20.1 µM); MFC ([15]; Penicillium ochrochloron): 15 ± 3 µg/mL (≈ 37.6 µM); MIC [15, 20]: 8 µg/mL (≈ 20.1 µM); MIC [16]: 4 ± 1 µg/mL (≈ 10 µM); MFC ([16]; Trichoderma viride, IAM5061): 8 ± 0.6 µg/mL (≈ 20.1 µM); MIC [16, 21]: 4 µg/mL (≈ 10 µM) |
| COC(=O)c1[nH]c2ccccc2c1/C=C1\SC(=S)N(c2cccc(O)c2)C1=O [Compound 3, (Z)-methyl 3-((3-(3-hydroxyphenyl)-4-oxo-2-thioxothiazolidin-5-ylidene)methyl)-1H-indole-2-carboxylate] | 30 ± 10 (≈ 73.1 µM) | 15 ± 3 (≈ 36.5 µM) | 30 ± 10 (≈ 73.1 µM) | 15 (≈ 36.5 µM) | 30 ± 10 (≈ 73.1 µM) | 15 ± 9 (≈ 36.5 µM) | 60 ± 6 (≈ 146 µM) | 45 ± 3 (≈ 110 µM) | 60 ± 6 (≈ 146 µM) | 30 ± 10 (≈ 73.1 µM) | 60 ± 6 (≈ 146 µM) | 30 ± 10 (≈ 73.1 µM) | 15 ± 9 (≈ 36.5 µM) | 30 ± 10 (≈ 73.1 µM) | 15 (≈ 36.5 µM) | 30 ± 10 (≈ 73.1 µM) | 22 ± 5 (≈ 53.6 µM) | 15 ± 9 (≈ 36.5 µM) | 30 ± 10 (≈ 73.1 µM) | 15 (≈ 36.5 µM) | melting point: 245 to 247 °C; MIC [2]: 15 ± 9 µg/mL (≈ 36.5 µM); MFC [10]: 15 ± 3 µg/mL (≈ 36.5 µM); MIC [10]: 8 ± 0.6 µg/mL (≈ 19.5 µM); MFC [11]: 15 ± 3 µg/mL (≈ 36.5 µM); MIC [11]: 8 ± 0.6 µg/mL (≈ 19.5 µM); MFC [13]: 15 ± 3 µg/mL (≈ 36.5 µM); MIC [13]: 8 ± 0.6 µg/mL (≈ 19.5 µM); MFC [14]: 60 ± 6 µg/mL (≈ 146 µM); MIC [14]: 30 ± 10 µg/mL (≈ 73.1 µM); MFC ([15]; Penicillium ochrochloron): 15 ± 3 µg/mL (≈ 36.5 µM); MIC [15, 20]: 8 ± 0.6 µg/mL (≈ 19.5 µM); MIC [16]: 4 ± 1 µg/mL (≈ 9.74 µM); MFC ([16]; Trichoderma viride, IAM5061): 8 ± 0.6 µg/mL (≈ 19.5 µM); MIC [16, 21]: 4 µg/mL (≈ 9.74 µM) |
| CC1(C)S[C@@H]2[C@H](NC(=O)[C@H](N)c3ccccc3)C(=O)N2[C@H]1C(=O)O [Ampicillin, reference compound] |  |  | 25 (≈ 71.5 µM) | 6 ± 3 (≈ 17.2 µM) | 500 ± 100 (≈ 1430 µM) | 250 ± 90 (≈ 715 µM) | 500 ± 100 (≈ 1430 µM) | 250 ± 90 (≈ 715 µM) | 500 ± 100 (≈ 1430 µM) | 300 ± 30 (≈ 859 µM) | 300 ± 30 (≈ 859 µM) | 150 ± 30 (≈ 429 µM) |  | 200 ± 9 (≈ 572 µM) | 150 ± 30 (≈ 429 µM) | 200 (≈ 572 µM) | 100 ± 50 (≈ 286 µM) |  | 150 ± 50 (≈ 429 µM) | 100 ± 50 (≈ 286 µM) |  |
